Source: patent US20140256663A1, “Amphotericin Analogous Compounds and Pharmaceutical Compositions Containing Them” (CENTRO DE INVESTIGACION Y DE ESTUDIOS AVANZADOS DEL …, priority 2010, published 2014)
Converted amounts (≈) assume the structure as drawn. “Also recorded” adds a separate entry of the source. Like-named read-outs stand apart in the source and are kept apart here.

What was measured:
[1] = system: Candida albicans ATCC 10231; experiment: Antifungal activity in vitro by flow cytometry, Candida albicans ATCC 10231; format: cell-based
[2] = system: Candida albicans ATCC 752; experiment: Antifungal activity in vitro by flow cytometry, Candida albicans ATCC 752; format: cell-based; conditions: read-out: CF50 Candida albicans ATCC 752
Protocol: (§1) The antifungal activity of the polyene macrolide derivate of the present invention was determined by flow cytometry method earlier described (Pinto et al., J. Medical Microbiology, 2009; 58, 1454-1462; Pina-Vaz and Rodriguez, Methods Mol. Biol. 2010; 638:281-289). For the test two strains of Candida albicans (ATCC 10231 and 752) and Candida kruzei were used. A cellular suspension of 1×10^6 UFC/mL was used, which has sown in 96-well plates. […] As controls were used: untreated yeasts (control of living cells), yeasts exposed to UV radiation (arrest, inhibition of proliferation), and yeasts exposed at temperature of 100° C. (dead yeasts). Cells were collected by centrifugation at 10,000×g for 10 min, they were washed once in phosphate buffer. […] of propidium iodide 0.1 mg/mL were added to the cell suspension. It was incubated during 30 minutes at room temperature and protected from light. Finally, the samples were analyzed by flow cytometry (Becton-Dickinson Facsc Calibur, laser argon 480 nm). The intrinsic parameters and fluorescence in the FL2 channel (yellow/orange fluorescence) for FUN and channel FL3 (red fluorescence, filter 630 nm) for propidium iodide were acquired and registered on a logarithmic scale for a minimum of 7500 events per sample. For data analysis, the quadrants were adjusted in a plot of data lines of fluorescence intensity of samples. […] These quadrants were used to quantify the percentile of cells showing altered fluorescence compared to drug-free controls.

[3] = system: Candida kruzei; experiment: Antifungal activity in vitro by flow cytometry, Candida kruzei; format: cell-based; conditions: read-out: CF50 Candida kruzei
Protocol: as §1

[4] = system: human renal cells 293Q (ATCC CLR-1573); experiment: MTT cytotoxicity on human renal cells 293Q
Protocol: For cytotoxicity studies human kidney cells (ATCC No. CRL-1573) were used. The cells were cultured with Minimum Essential Medium (MEM) (GIBCO BRL), supplemented with 10% fetal bovine serum (FBS) (GIBCO BRL), 2 mM 1-glutamine (GIBCO BRL), 1.5 gL Na2HCO3 (Sigma Chemical Co), 0.1 mM nonessential amino acids (Sigma Chemical Co), and 1 mM sodium pyruvate (In vitro, S.A.). The technique of bromide of 3(4,5-dimethylthiazol-2-yl)-2,5-diphenyl tetrazolium (MTT) (Sigma Chemical Co) was applied; a technique which is based on the conversion of dye to an insoluble precipitate called formazan. This test is used as an indicator of mitochondrial function in living cells that measures the metabolic capacity in cells and serves as an indicator of cytotoxicity. […] (Mosman […], Immunol Methods, 65: 55-63). The cytoxicity test consisted of planting 10,000 cells per well in 96-well plates (Corning Incorporated Costar) in MEM and incubate them (Nuaire us autoflow CO2 water-jacketed incubator) during 24 h at 37° C. and 5% CO2. […] After incubation, cells were treated and incubated anew for 24 h. After this time the medium was aspirated carefully and replaced with 200 μL of fresh medium, and 50 μL of MTT was added for a total volume of 250 μl. They were then incubated for 4 hours in the above conditions. After that time the medium with MTT was carefully removed and 200 μL of DMSO and 25 μL of Sorensen buffer (0.1 M glycine+0.1 M NaCl at pH 10.5) were added to each well. The plate was then mixed until the formazan crystals dissolved, and it was finally read in a plate reader (Microplate Limaning System Ultramark, Biorad) at a wavelength of 550 nm.
For the tests, we used human renal ephythelial cells (293Q) (ATCC Catalog No. CRL-1573). The cells were cultured with Minimum Essential Medium (MEM) (GIBCO BRL) supplemented with 10% fetal bovine serum (FBS) (GIBCO BRL), 2 mM L-glutamine (GIBCO BRL), 1.5 g/L Na2HCO3 (Sigma Chemical Co), 0.1 mM nonessential amino acids (Sigma Chemical Co), and 1 mM sodium pyruvate (In vitro, S.A.). For cytoxicity tests, we applied the technique of bromide 3(4,5-dimethylthiazol-2-yl)-2,5-diphenyl tetrazolium (MTT) (Sigma Chemical Co), which is based on the conversion of the dye to an insoluble precipitate called formazan. This test is used as an indicator of mitochondrial function in living cells which measures the metabolic capacity in cells and serves as an indicator of cytotoxicity. (Wang, H. Z., Chang, C. H., Lin, C. P., Tsai, M. C). Using MTT viability assay to test the cytotoxicity of antibiotics and steroid to cultured porcine corneal endothelial cells. J. Ocul. Pharmacol. Ther. 1996; 12: 35-43). For the essay 10,000 cells were seeded per well in 96-well plates (Corning Incorporated Costar) in the medium already indicated and incubated for 24 h at 37° C. and 5% CO2. […] After incubation, cells were treated and incubated again for 24 h. The medium was carefully aspirated and replaced with 200 μl fresh medium, adding 50 μl MTT solution for a total volume of 250 μl. They were then incubated for 4 hours in the above conditions. The medium was carefully removed with MTT and 200 μl DMSO and 25 μl Sorense buffer (0.1 M glycine+0.1 M NaCl at pH 10.5) was added to each well. Then the plate was mixed until the formazan crystals dissolved; it was finally read in a reader plate (Microplate Limaning System Ultramark, Biorad) at a wavelength of 550 nm.

[5] = system: human erythrocytes; experiment: Hemolytic assay on human erythrocytes; format: cell-based; conditions: 1 hour
Protocol: The hemotoxicity of the polyene macrolide derivative of the present invention was determined by measuring the toxicity to human erythrocytes (values HE50) using a method established by Cybulska, et al. (Cybulska, B., Borowski, E. and Gary-Bobo, M. Relationship between ionophoric and hemolytic activities of perimycin A and vacidin A, two polyene macrolide antifungal antibiotics. Biochem Pharmacol. 1989; 38(11): 1755-1762). For determining the haematoxicity 2 mL blood were obtained and placed in a tube with EDTA. The number of erythrocytes was counted in a Neubauer chamber, and 1×10^7 cells/mL were placed in test tubes. The erythrocytes were resuspended in 450 μL of KCl 150 mM+Tris 3 mM buffer. The erythrocytes were treated with concentrations of 0.01, 0.1, 1, 10 y 100 μM and incubated in a water bath for 1 hour. They were then centrifuged at 1500 rpm for 15 seconds; 150 μL were taken from the supernatant and placed in 96-well plates; the optical density of each group was measured using a plate reader at a wavelength of 550 nm. We included one tube with the drug solvent (DMSO 1%) as internal control. We also included one tube only with erythrocytes and 500 μl of buffer KCl 150 mM+Tris 3 mM, which we consider as a negative control group and a tube with 500 μl of red cells and 35 mM NaCl (positive control).

SMILES | IC50 ([1]; ATCC10231, 24 h, read-out: CF50 Candida albicans ATCC 10231) [µM] | IC50 ([2]; ATCC752, 24 h) [µM] | IC50 ([3]; 24 h) [µM] | collateral cytotoxicity on human renal cells 293Q compared to AmB ([4]; FIG. 2, FIG. 8, listed as amide 7) | DT50 CitE50 ([4]; human renal cells 293Q, 24 h) [µM] | HE50 (Hemolysis 50) [5] [µM] | MIC50 ([1]; ATCC10231, Compounds of the present invention) [µg/mL] | IC50 ([2]; ATCC752, 24 h at 37° C.) [µM] | IC50 ([3]; 24 h at 37° C.) [µM] | DT50 CitE50 ([4]; human, 24 h) [µM] | MIC50 Kidney cells (293Q) ([4]; human, 24 h) [µM]
COC(=O)[C@@H](Cc1c[nH]c2ccccc12)NC(=O)[C@@H]1C(O)C[C@@]2(O)C[C@@H](O)C[C@@H](O)[C@H](O)CC[C@@H](O)C[C@@H](O)CC(=O)OC(C)C(C)[C@H](O)C(C)/C=C/C=C/C=C/C=C/C=C/C=C/C=C/[C@H](OC3OC(C)C(O)C(N)C3O)CC1O2 (stereo partly drawn) [A-7, N-(D)-tryptophanamide of AmB] | 1.5 | 8.2 | > 10 | the lowest cytoxicity; also recorded: low cytoxicity | 220 | 80 |  |  |  |  | 
C[C@@H]1[C@H](O)[C@@H](C)/C=C/C=C/C=C/C=C/C=C/C=C/C=C/[C@H](O[C@@H]2O[C@H](C)[C@@H](O)[C@H](N)[C@@H]2O)C[C@@H]2O[C@](O)(C[C@@H](O)C[C@@H](O)[C@H](O)CC[C@@H](O)C[C@@H](O)CC(=O)O[C@H]1C)C[C@H](O)[C@H]2C(=O)O [AmB, Amphotericin B] |  |  |  |  |  | 7 | 0.2 (≈ 0.216 µM) | 1 | > 10 | 9.7 | 9.7 (≈ 8.96 µg/mL)
